Assay results from ChEMBL document CHEMBL4308841, “Synthesis, in vitro antiproliferative activity, and kinase inhibitory effects of pyrazole-containing diarylureas and diarylamides” (Eur J Med Chem, 2018).

Experiments:
OVCAR-8 = test: Growth inhibition of human OVCAR8 cells assessed as cell growth at 0.1 uM incubated for 48 hrs by sulforhodamine B assay relative to control; format: functional; conditions: OVCAR-8, 48 h, read-out: Activity
786-0 [1] = test: Growth inhibition of human 786-0 cells assessed as cell growth at 1 uM incubated for 48 hrs by sulforhodamine B assay relative to control; format: functional; conditions: 786-0, 48 h, read-out: Activity
ACHN = test: Growth inhibition of human ACHN cells incubated for 48 hrs by sulforhodamine B assay; format: functional, cell-based
SF-539 = test: Growth inhibition of human SF539 cells assessed as cell growth at 100 uM incubated for 48 hrs by sulforhodamine B assay relative to control; format: functional; conditions: SF-539, 48 h, read-out: Activity
NCI-H522 = test: Growth inhibition of human NCI-H522 cells assessed as cell growth at 0.01 uM incubated for 48 hrs by sulforhodamine B assay relative to control; format: functional; conditions: NCI-H522, 48 h, read-out: Activity
LOX IMVI [2] = test: Growth inhibition of human LOXIMVI cells incubated for 48 hrs by sulforhodamine B assay; format: functional
MCF7 [3] = test: Growth inhibition of human MCF7 cells assessed as cell growth at 0.1 uM incubated for 48 hrs by sulforhodamine B assay relative to control; format: functional; conditions: MCF7, 48 h, read-out: Activity
CAKI-1 [4] = test: Growth inhibition of human Caki1 cells assessed as cell growth at 0.1 uM incubated for 48 hrs by sulforhodamine B assay relative to control; format: functional; conditions: CAKI-1, 48 h, read-out: Activity
NCI-H23 = test: Growth inhibition of human NCI-H23 cells assessed as cell growth at 0.01 uM incubated for 48 hrs by sulforhodamine B assay relative to control; format: functional; conditions: NCI-H23, 48 h, read-out: Activity
UACC-62 = test: Growth inhibition of human UACC62 cells assessed as cell growth at 0.1 uM incubated for 48 hrs by sulforhodamine B assay relative to control; format: functional; conditions: UACC-62, 48 h, read-out: Activity
K562 [5] = test: Growth inhibition of human K562 cells assessed as cell growth at 0.01 uM incubated for 48 hrs by sulforhodamine B assay relative to control; format: functional; conditions: K562, 48 h, read-out: Activity
SK-MEL-28 = test: Growth inhibition of human SK-MEL-28 cells assessed as cell growth at 100 uM incubated for 48 hrs by sulforhodamine B assay relative to control; format: functional; conditions: SK-MEL-28, 48 h, read-out: Activity
COLO 205 [6] = test: Growth inhibition of human COLO205 cells incubated for 48 hrs by sulforhodamine B assay; format: functional, cell-based; conditions: COLO 205, 48 h
M14 = test: Growth inhibition of human M14 cells incubated for 48 hrs by sulforhodamine B assay; format: functional, cell-based; conditions: M14, 48 h
CAKI-1 [7] = test: Growth inhibition of human Caki1 cells assessed as cell growth at 1 uM incubated for 48 hrs by sulforhodamine B assay relative to control; format: functional; conditions: CAKI-1, 48 h, read-out: Activity
NCI/ADR-RES = test: Growth inhibition of human NCI/ADR-RES cells assessed as cell growth at 0.1 uM incubated for 48 hrs by sulforhodamine B assay relative to control; format: functional; conditions: read-out: Activity
K562 [8] = test: Growth inhibition of human K562 cells assessed as cell growth at 1 uM incubated for 48 hrs by sulforhodamine B assay relative to control; format: functional; conditions: K562, 48 h, read-out: Activity
HCT-116 = test: Growth inhibition of human HCT116 cells incubated for 48 hrs by sulforhodamine B assay; format: functional, cell-based; conditions: HCT-116, 48 h
LOX IMVI [9] = test: Growth inhibition of human LOXIMVI cells assessed as cell growth at 1 uM incubated for 48 hrs by sulforhodamine B assay relative to control; format: functional; conditions: read-out: Activity
U-251 = test: Growth inhibition of human U251 cells incubated for 48 hrs by sulforhodamine B assay; format: functional, cell-based; conditions: U-251, 48 h
786-0 [10] = test: Growth inhibition of human 786-0 cells assessed as cell growth at 0.1 uM incubated for 48 hrs by sulforhodamine B assay relative to control; format: functional; conditions: 786-0, 48 h, read-out: Activity
NCI-H226 = test: Growth inhibition of human NCI-H226 cells assessed as cell growth at 0.01 uM incubated for 48 hrs by sulforhodamine B assay relative to control; format: functional; conditions: NCI-H226, 48 h, read-out: Activity
SK-OV-3 = test: Growth inhibition of human SKOV3 cells assessed as cell growth at 0.1 uM incubated for 48 hrs by sulforhodamine B assay relative to control; format: functional; conditions: SK-OV-3, 48 h, read-out: Activity
UACC-257 = test: Growth inhibition of human UACC257 cells assessed as cell growth at 0.1 uM incubated for 48 hrs by sulforhodamine B assay relative to control; format: functional; conditions: UACC-257, 48 h, read-out: Activity
MCF7 [11] = test: Growth inhibition of human MCF7 cells assessed as cell growth at 0.01 uM incubated for 48 hrs by sulforhodamine B assay relative to control; format: functional; conditions: MCF7, 48 h, read-out: Activity
HOP-62 = test: Growth inhibition of human HOP62 cells assessed as cell growth at 100 uM incubated for 48 hrs by sulforhodamine B assay relative to control; format: functional; conditions: HOP-62, 48 h, read-out: Activity
DU-145 = test: Growth inhibition of human DU145 cells assessed as cell growth at 0.1 uM incubated for 48 hrs by sulforhodamine B assay relative to control; format: functional; conditions: DU-145, 48 h, read-out: Activity
Malme-3M = test: Growth inhibition of human MALME-3M cells assessed as cell growth at 0.1 uM incubated for 48 hrs by sulforhodamine B assay relative to control; format: functional; conditions: read-out: Activity
MDA-MB-468 = test: Growth inhibition of human MDA-MB-468 cells assessed as cell growth at 1 uM incubated for 48 hrs by sulforhodamine B assay relative to control; format: functional; conditions: MDA-MB-468, 48 h, read-out: Activity
COLO 205 [12] = test: Growth inhibition of human COLO205 cells assessed as cell growth at 1 uM incubated for 48 hrs by sulforhodamine B assay relative to control; format: functional; conditions: COLO 205, 48 h, read-out: Activity
[13] = read-out: LC50 (the source's name)
[14] = read-out: pLC50 (the source's name) (converted)

SMILES: O=C(Nc1cccc(-n2cc(-c3ccncc3)c(-c3cc(O)cc(Cl)c3)n2)c1)c1cc(C(F)(F)F)cc(C(F)(F)F)c1
- growth at 0.1 µM (OVCAR-8): 100%
- growth at 1 µM (786-0 [1]): 56%
- GI50 (ACHN; read-out: GI50): 4.96 µM
- CC50 (ACHN; [13]): > 100 µM
- TGI (ACHN; read-out: TGI): > 100 µM
- GI50 (ACHN; read-out: pGI50 (converted)): 5.01 µM
- CC50 (ACHN; [14]): > 100 µM
- TGI (ACHN; read-out: pTGI (converted)): > 100 µM
- growth at 100 µM (SF-539): -13%
- growth at 0.01 µM (NCI-H522): 93%
- GI50 (LOX IMVI [2]; read-out: GI50): 3.29 µM
- CC50 (LOX IMVI [2]; [13]): > 100 µM
- TGI (LOX IMVI [2]; read-out: TGI): 13.7 µM
- GI50 (LOX IMVI [2]; read-out: pGI50 (converted)): 3.31 µM
- CC50 (LOX IMVI [2]; [14]): > 100 µM
- TGI (LOX IMVI [2]; read-out: pTGI (converted)): 13.8 µM
- growth at 0.1 µM (MCF7 [3]): 92%
- growth at 0.1 µM (CAKI-1 [4]): 98%
- growth at 0.01 µM (NCI-H23): 94%
- growth at 0.1 µM (UACC-62): 97%
- growth at 0.01 µM (K562 [5]): 99%
- growth at 100 µM (SK-MEL-28): -2%
- GI50 (COLO 205 [6]; read-out: GI50): 2.32 µM
- CC50 (COLO 205 [6]; [13]): > 100 µM
- TGI (COLO 205 [6]; read-out: TGI): 57.4 µM
- GI50 (COLO 205 [6]; read-out: pGI50 (converted)): 2.34 µM
- CC50 (COLO 205 [6]; [14]): > 100 µM
- TGI (COLO 205 [6]; read-out: pTGI (converted)): 5.75 µM
- GI50 (M14; read-out: GI50): 3.01 µM
- CC50 (M14; [13]): > 100 µM
- TGI (M14; read-out: TGI): > 100 µM
- GI50 (M14; read-out: pGI50 (converted)): 3.02 µM
- CC50 (M14; [14]): > 100 µM
- TGI (M14; read-out: pTGI (converted)): > 100 µM
- growth at 1 µM (CAKI-1 [7]): 90%
- growth at 0.1 µM (NCI/ADR-RES): 100%
- growth at 1 µM (K562 [8]): 85%
- IC50 (HCT-116): 3.23 µM
- GI50 (HCT-116; read-out: GI50): 3.23 µM
- CC50 (HCT-116; [13]): > 100 µM
- TGI (HCT-116; read-out: TGI): > 100 µM
- GI50 (HCT-116; read-out: pGI50 (converted)): 3.24 µM
- CC50 (HCT-116; [14]): > 100 µM
- TGI (HCT-116; read-out: pTGI (converted)): > 100 µM
- growth at 1 µM (LOX IMVI [9]): 97%
- IC50 (U-251): 3.23 µM
- GI50 (U-251; read-out: GI50): 3.23 µM
- CC50 (U-251; [13]): > 100 µM
- TGI (U-251; read-out: TGI): 24.4 µM
- GI50 (U-251; read-out: pGI50 (converted)): 3.24 µM
- CC50 (U-251; [14]): > 100 µM
- TGI (U-251; read-out: pTGI (converted)): 30.9 µM
- growth at 0.1 µM (786-0 [10]): 97%
- growth at 0.01 µM (NCI-H226): 95%
- growth at 0.1 µM (SK-OV-3): 98%
- growth at 0.1 µM (UACC-257): 98%
- growth at 0.01 µM (MCF7 [11]): 58%
- growth at 100 µM (HOP-62): 14%
- growth at 0.1 µM (DU-145): 99%
- growth at 0.1 µM (Malme-3M): 52%
- growth at 1 µM (MDA-MB-468): 52%
- growth at 1 µM (COLO 205 [12]): 97%
